In the assay the test system is rice plants. In words: Safening of rice grown from treated seeds against clodinafop herbicide, greenhouse tray test. The settings on record: rice seed treatment; for Av. shoot weight: average dry shoot weight five weeks after the clodinafop treatment; for Av. plant height: determined five weeks after the clodinafop treatment. Type of assay: in vivo. On the procedure:
Various batches of treated rice seeds were sown in soil contained in trays (0.0425 m^2) at a rice density of 120 kg/ha and their growth monitored in a green house (at 25° C. during the day and 23° C. during the nght). The amounts of the active ingredients, i.e. thiamethoxam (Cruiser 350FS) and N-(2-methoxybenzoyl)-4-[(methylaminocarbonyl)amino]benzene-sulfonamide (safener) used for the rice seed treatment are indicated in the table below. The trays were flooded with water three days after sowing. Nine days after sowing the rice plants were sprayed with the herbicide clodinafop in an amount equal to 100 g/ha. The average plant height and the average dry shoot weight were determined five weeks after the clodinafop treatment.
A similar procedure was performed on untreated seeds except that the clodinafop treatment was omitted (control).
The same procedure as descrbed above was repeated except that the rice plants were treated with the herbicide clodinafop fifteen days after sowing.

Where [1] appears, read: clodinafop 100 g/ha sprayed 9 days after sowing.
Where [2] appears, read: clodinafop 100 g/ha sprayed 15 days after sowing.

In the case of `CNC(=O)Nc1ccc(S(=O)(=O)NC(=O)c2ccccc2OC)cc1` [A, N-(2-methoxybenzoyl)-4-[(methylaminocarbonyl)amino]benzene-sulfonamide], the Av. shoot weight reads like this: under setting [1], 230 mg; under setting [2], 400 mg. Moreover, the Av. plant height by setting is: under setting [1], 24 cm; under setting [2], 35 cm.

Take `CNC(=O)Nc1ccc(S(=O)(=O)NC(=O)c2ccccc2OC)cc1` [C, N-(2-methoxybenzoyl)-4-[(methylaminocarbonyl)amino]benzene-sulfonamide]: under setting [1], the Av. shoot weight is 300 mg and the Av. plant height is recorded as 30 cm. Moreover, under setting [2], the Av. shoot weight turned out to be 510 mg and the Av. plant height was 40 cm.

For the origin of these results see patent US20130225404A1, “PESTICIDAL COMBINATIONS” (SYNGENTA PARTICIPATIONS AG, priority 2010, published 2013).
